Data as given in patent US20200405604A1, “COSMETIC COMPOSITION COMPRISING 4-(3-ETHOXY-4-HYDROXYPHENYL)-2-BUTANONE” (L'OREAL, priority 2011, published 2020).

Test: Solubility test in test solvents
Type: physicochemical
Protocol: The test solvent was poured into a beaker, an amount of the compound 4-(3-ethoxy-4-hydroxyphenyl)-2-butanone was added with magnetic stirring and the mixture was left to stand for between 1 hour and 24 hours. The mixture was then heated to 50° C. and then cooled to room temperature (25° C.) over 24 hours. The system was then observed to see if the amount of compound introduced recrystallized or remained dissolved.
The amount of compound that can be dissolved in the test solvent was determined in this manner. The maximum value corresponds to the amount at and above which the ester compound stops dissolving in the evaluated solvent.

## CCOc1cc(CCC(C)=O)ccc1O [4-(3-ethoxy-4-hydroxyphenyl)-2-butanone]
In water or glycerol
  Solubility (in words): very sparingly soluble
With ethanol, 1,2-propylene glycol, 1,3-propanediol, PEG-8 and propylene carbonate
  Dissolution (in words): very satisfactorily dissolved
With glycerol
  Dissolution (in words): very sparingly dissolved
